# Laboratory results: US20230365554A1, “SUBSTITUTED PYRROLO-PYRIDINONE DERIVATIVES AND THERAPEUTIC USES THEREOF” (The Broad Institute, Inc., priority 2020, published 2023)
# Legend:
# human CSNK1D = human CSNK1D (Homo sapiens (Human), UniProt P48730); test: CSNK1D assay (ADP-Glo, 1 μM ATP); format: biochemical; conditions: median, Table 2, read-out: CSNK1D IC50 [mol/l] (median)
# Protocol: CSNK1D-inhibitory activity of compounds of the present invention in presence of 1 μM adenosine-tri-phosphate (ATP) was quantified employing the CSNK1D assay as described in the following paragraphs. In essence, the enzyme activity is measured by quantification of the adenosine-di-phosphate (ADP), which is generated as a co-product of the enzyme reaction, via the “ADP-Glo™ Kinase Assay” kit from the company Promega. This detection system works as follows: In a first step the ATP not consumed in the kinase reaction is quantitatively converted to cAMP employing an adenylate cyclase (“ADP-Glo-reagent”), then the adenylate cyclase is stopped and the ADP generated in the kinase reaction converted to ATP which generates in a luciferase-based reaction a glow-luminescence signal (“Kinase Detection Reagent”).
# (§1) Recombinant fusion protein of N-terminal Glutathion-S-Transferase (GST) and full-length human CSNK1D, expressed by baculovirus infected insect cells and purified via Glutathion affinity chromatography, was purchased from Life Technologies (product no. PV3665) and used as enzyme. As substrate for the kinase reaction the biotinylated peptide Btn-Ahx-SGSEGDSESGEEEG (C-terminus in amide form) was used which can be purchased e.g. from the company Biosyntan (Berlin-Buch, Germany).
# For the assay 50 nl of a 100 fold concentrated solution of the test compound in DMSO was pipetted into a white 1536-well microtiter plate (Greiner Bio-One, Frickenhausen, Germany), 2 μL of a solution of CSNK1D in aqueous assay buffer [50 mM HEPES pH 7.5, 10% (v/v) glycerol, 10 mM MgCl2, 50 mM NaCl, 1 mM dithiothreitol, 0.01% (w/v) bovine serum albumin, 0.01% (v/v) Triton X-100] were added and the mixture was incubated for 15 min at 22° C. to allow pre-binding of the test compounds to the enzyme before the start of the kinase reaction. Then the kinase reaction was started by the addition of 3 μL of a solution of ATP (1.67 μM=>final conc. in the 5 μL assay volume is 1 μM) and peptide substrate (50 μM=>final conc. in the 5 μL assay volume is 30 μM) in assay buffer and the resulting mixture was incubated for a reaction time of 30 min at 22° C. The concentration of CSNK1D was adjusted depending of the activity of the enzyme lot and was chosen appropriate to have the assay in the linear range, a typical concentration is about 0.5 ng/μL. The reaction was stopped by the addition of 2.5 μL of “ADP-Glo-reagent” (1:1.5 fold diluted with water) and the resulting mixture was incubated at 22° C. for 1 h to convert the ATP not consumed in the kinase reaction completely […]. Subsequently 2.5 μL of the “kinase detection reagent” (1.2 fold more concentrated than recommended by the producer) were added, the resulting mixture was incubated at 22° C. for 1 h and then the luminescence measured with a suitable measurement instrument (e.g. Viewlux™ from Perkin-Elmer). The amount of emitted light was taken as a measure for the amount of ADP generated and thereby for the activity of the CSNK1D.
# (§2) The data were normalised (enzyme reaction without inhibitor=0% inhibition, all other assay components but no enzyme=100% inhibition).
# human CSNK1A1 = human CSNK1A1 (Homo sapiens (Human), UniProt P48729); test: CSNK1A1 Assay 2 (ADP-Glo, 1 μM ATP); format: biochemical; conditions: median, Table 2, read-out: CSNK1A1 Assay 2 IC50 [mol/l] (median)
# Protocol: CSNK1A1-inhibitory activity of compounds of the present invention in presence of 1 μM adenosine-tri-phosphate (ATP) was quantified employing the CSNK1A1 assay as described in the following paragraphs. In essence, the enzyme activity is measured by quantification of the adenosine-di-phosphate (ADP), which is generated as a co-product of the enzyme reaction, via the “ADP-Glo™ Kinase Assay” kit from the company Promega. This detection system works as follows: In a first step the ATP not consumed in the kinase reaction is quantitatively converted to cAMP employing an adenylate cyclase (“ADP-Glo-reagent”), then the adenylate cyclase is stopped and the ADP generated in the kinase reaction converted to ATP which generates in a luciferase-based reaction a glow-luminescence signal (“Kinase Detection Reagent”).
# as §1, with “CSNK1A1,” for “CSNK1D,”, “PV4174)” for “PV3665)”, “biotin-Ahx-KRRRAL-pS-VASLPGL” for “Btn-Ahx-SGSEGDSESGEEEG”
# For the assay 50 nl of a 100 fold concentrated solution of the test compound in DMSO was pipetted into a white 1536-well microtiter plate (Greiner Bio-One, Frickenhausen, Germany), 2 μL of a solution of CSNK1A1 in aqueous assay buffer [50 mM HEPES pH 7.5, 10% (v/v) glycerol, 10 mM MgCl2, 50 mM NaCl, 1 mM dithiothreitol, 0.01% (w/v) bovine serum albumin, 0.01% (v/v) Triton X-100] were added and the mixture was incubated for 15 min at 22° C. to allow pre-binding of the test compounds to the enzyme before the start of the kinase reaction. Then the kinase reaction was started by the addition of 3 μL of a solution of ATP (1.67 μM=>final conc. in the 5 μL assay volume is 1 μM) and peptide substrate (50 μM=>final conc. in the 5 μL assay volume is 30 μM) in assay buffer and the resulting mixture was incubated for a reaction time of 30 min at 22° C. The concentration of CSNK1A1 was adjusted depending of the activity of the enzyme lot and was chosen appropriate to have the assay in the linear range, a typical concentrations are about 0.0375 ng/μL. The reaction was stopped by the addition of 2.5 μL of “ADP-Glo-reagent” (1:1.5 fold diluted with water) and the resulting mixture was incubated at 22° C. for 1 h to convert the ATP not consumed in the kinase reaction completely […]. Subsequently 2.5 μL of the “kinase detection reagent” (1.2 fold more concentrated than recommended by the producer) were added, the resulting mixture was incubated at 22° C. for 1 h and then the luminescence measured with a suitable measurement instrument (e.g. Viewlux™ from Perkin-Elmer). The amount of emitted light was taken as a measure for the amount of ADP generated and thereby for the activity of the CSNK1A1.
# as §2
# Chain of human CSNK1D (P48730 whole entry): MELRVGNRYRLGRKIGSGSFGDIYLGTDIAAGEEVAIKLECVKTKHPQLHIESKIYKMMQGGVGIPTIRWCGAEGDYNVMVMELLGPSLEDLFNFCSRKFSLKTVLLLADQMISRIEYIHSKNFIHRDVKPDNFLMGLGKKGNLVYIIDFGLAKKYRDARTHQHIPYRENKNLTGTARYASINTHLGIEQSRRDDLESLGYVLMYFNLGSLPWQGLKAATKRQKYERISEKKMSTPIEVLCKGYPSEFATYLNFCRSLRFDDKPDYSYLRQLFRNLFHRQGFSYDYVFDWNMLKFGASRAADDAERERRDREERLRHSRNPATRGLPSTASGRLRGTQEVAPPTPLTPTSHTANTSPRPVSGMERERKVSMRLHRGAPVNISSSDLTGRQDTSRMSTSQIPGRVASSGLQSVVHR
# Chain of human CSNK1A1 (P48729 whole entry): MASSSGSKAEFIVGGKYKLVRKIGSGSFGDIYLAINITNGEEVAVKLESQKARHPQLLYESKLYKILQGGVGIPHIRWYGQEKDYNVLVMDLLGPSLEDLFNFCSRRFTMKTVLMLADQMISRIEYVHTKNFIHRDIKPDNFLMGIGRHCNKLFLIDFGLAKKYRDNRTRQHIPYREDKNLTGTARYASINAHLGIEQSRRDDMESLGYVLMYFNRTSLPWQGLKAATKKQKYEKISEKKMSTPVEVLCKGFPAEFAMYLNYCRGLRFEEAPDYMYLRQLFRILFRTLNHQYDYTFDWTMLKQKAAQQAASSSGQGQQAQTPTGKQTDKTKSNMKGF
Structure (SMILES),IC50 (human CSNK1D),IC50 (human CSNK1A1)
"Cn1cc(CC(F)F)c2[nH]c(-c3ccnc(NC(=O)Cc4ccc(F)cc4)c3)c(Nc3ccccc3)c2c1=O [Example 45, N-{4-[3-anilino-7-(2,2-difluoroethyl)-5-methyl-4-oxo-4,5-dihydro-1H-pyrrolo[3,2-c]pyridin-2-yl]pyridin-2-yl}-2-(4-fluorophenyl)acetamide]",0.0097 µM,0.0057 µM
"CN1CC(CC(F)(F)F)c2[nH]c(-c3ccnc(NC(=O)Cc4ccc(F)cc4)c3)c(Nc3ccccc3)c2C1=O (single isomer, unassigned) [Example 16, N-{4-[3-anilino-5-methyl-4-oxo-7-(2,2,2-trifluoroethyl)-4,5,6,7-tetrahydro-1H-pyrrolo[3,2-c]pyridin-2-yl]pyridin-2-yl}-2-(4-fluorophenyl)acetamide]",0.0071 µM,0.0043 µM
"CCc1c[nH]c(=O)c2c(Nc3ccccc3)c(-c3ccnc(NC(=O)C(CC(F)F)c4ccc(F)cc4)c3)[nH]c12 (racemic) [Example 5, N-[4-(3-anilino-7-ethyl-4-oxo-4,5-dihydro-1H-pyrrolo[3,2-c]pyridin-2-yl)pyridin-2-yl]-4,4-difluoro-2-(4-fluorophenyl)butanamide]",0.0064 µM,0.0072 µM
"Cn1cc(CC(F)(F)F)c2[nH]c(-c3ccnc(NC(=O)Cc4ccc(F)cc4)c3)c(Nc3ccccc3)c2c1=O [Example 34, N-{4-[3-anilino-5-methyl-4-oxo-7-(2,2,2-trifluoroethyl)-4,5-dihydro-1H-pyrrolo[3,2-c]pyridin-2-yl]pyridin-2-yl}-2-(4-fluorophenyl)acetamide]",0.0091 µM,0.0043 µM
"CN1CC(CC(F)(F)F)c2[nH]c(-c3ccnc(NC(=O)Cc4ccc(F)cc4)c3)c(Nc3cscn3)c2C1=O (single isomer, unassigned) [Example 48, 2-(4-fluorophenyl)-N-{4-[(7R or S)-5-methyl-4-oxo-3-(1,3-thiazol-4-ylamino)-7-(2,2,2-trifluoroethyl)-4,5,6,7-tetrahydro-1H-pyrrolo[3,2-c]pyridin-2-yl]pyridin-2-yl}acetamide]",0.032 µM,0.0075 µM
"Cn1ccc2[nH]c(-c3ccnc(NC(=O)C(CC(F)F)c4ccc(F)cc4)c3)c(Nc3ccccc3)c2c1=O (single isomer, unassigned) [Example 30, N-[4-(3-anilino-5-methyl-4-oxo-4,5-dihydro-1H-pyrrolo[3,2-c]pyridin-2-yl)pyridin-2-yl]-4,4-difluoro-2-(4-fluorophenyl)butanamide]",0.0071 µM,0.0037 µM
"Cc1cn(C)c(=O)c2c(Nc3ccccc3)c(-c3ccnc(NC(=O)C(CC(F)F)c4ccc(F)cc4)c3)[nH]c12 (single isomer, unassigned) [Example 12, N-[4-(3-anilino-5,7-dimethyl-4-oxo-4,5-dihydro-1H-pyrrolo[3,2-c]pyridin-2-yl)pyridin-2-yl]-4,4-difluoro-2-(4-fluorophenyl)butanamide]",0.16 µM,0.18 µM
"CN1CC(CC(F)(F)F)c2[nH]c(-c3ccnc(NC(=O)C(CC(F)F)c4ccc(F)cc4)c3)c(Nc3ccccc3)c2C1=O (stereo not shown) [Example 17, N-{4-[3-anilino-5-methyl-4-oxo-7-(2,2,2-trifluoroethyl)-4,5,6,7-tetrahydro-1H-pyrrolo[3,2-c]pyridin-2-yl]pyridin-2-yl}-4,4-difluoro-2-(4-fluorophenyl)butanamide]",0.017 µM,0.017 µM
"CN1CC(CC2CC2)c2[nH]c(-c3ccnc(NC(=O)Cc4ccc(F)cc4)c3)c(Nc3cscn3)c2C1=O (single isomer, unassigned) [Example 51, N-{4-[(7R or S)-7-(cyclopropylmethyl)-5-methyl-4-oxo-3-(1,3-thiazol-4-ylamino)-4,5,6,7-tetrahydro-1H-pyrrolo[3,2-c]pyridin-2-yl]pyridin-2-yl}-2-(4-fluorophenyl)acetamide]",0.057 µM,0.02 µM
"Cc1cn(C)c(=O)c2c(Nc3ccccc3)c(-c3ccnc(NC(=O)C(CC(F)F)c4ccc(F)cc4)c3)[nH]c12 (racemic) [Example 11, N-[4-(3-anilino-5,7-dimethyl-4-oxo-4,5-dihydro-1H-pyrrolo[3,2-c]pyridin-2-yl)pyridin-2-yl]-4,4-difluoro-2-(4-fluorophenyl)butanamide]",0.025 µM,0.019 µM
"CCC1CNC(=O)c2c1[nH]c(-c1ccnc(NC(=O)C(CC(F)F)c3ccc(F)cc3)c1)c2Nc1ccccc1 (stereo not shown) [Example 4, N-{4-[3-anilino-7-ethyl-4-oxo-4,5,6,7-tetrahydro-1H-pyrrolo[3,2-c]pyridin-2-yl]pyridin-2-yl}-4,4-difluoro-2-(4-fluorophenyl)butanamide]",0.016 µM,0.016 µM
"Cn1ccc2[nH]c(-c3ccnc(NC(=O)C(CC(F)F)c4ccc(F)cc4)c3)c(Nc3ccccc3)c2c1=O (single isomer, unassigned) [Example 29, N-[4-(3-anilino-5-methyl-4-oxo-4,5-dihydro-1H-pyrrolo[3,2-c]pyridin-2-yl)pyridin-2-yl]-4,4-difluoro-2-(4-fluorophenyl)butanamide]",0.053 µM,0.05 µM
"Cc1cn(C)c(=O)c2c(Nc3ccccc3)c(-c3ccnc(NC(=O)C(CC(F)F)c4ccc(F)cc4)c3)[nH]c12 (single isomer, unassigned) [Example 13, N-[4-(3-anilino-5,7-dimethyl-4-oxo-4,5-dihydro-1H-pyrrolo[3,2-c]pyridin-2-yl)pyridin-2-yl]-4,4-difluoro-2-(4-fluorophenyl)butanamide]",0.022 µM,0.019 µM
"CN1CC(CC2CC2)c2[nH]c(-c3ccnc(NC(=O)Cc4ccc(F)cc4)c3)c(Nc3cscn3)c2C1=O (single isomer, unassigned) [Example 50, N-{4-[(7R or S)-7-(cyclopropylmethyl)-5-methyl-4-oxo-3-(1,3-thiazol-4-ylamino)-4,5,6,7-tetrahydro-1H-pyrrolo[3,2-c]pyridin-2-yl]pyridin-2-yl}-2-(4-fluorophenyl)acetamide]",0.0099 µM,0.0051 µM
